The text below walks through data of patent US20130158075A1, “HETEROCYCLIC COMPOUNDS AS DGAT1 INHIBITORS” (PIRAMAL ENTERPRISES LIMITED, priority 2010, published 2013).

Bounds are passed on as bounds.

This assay addresses T1, hDGAT1 (Homo sapiens, UniProt O75907).
T1 construct: made in house; host or cells: Sf9 insect cells (baculovirus); microsomal fraction
T1 sequence (O75907 1-488): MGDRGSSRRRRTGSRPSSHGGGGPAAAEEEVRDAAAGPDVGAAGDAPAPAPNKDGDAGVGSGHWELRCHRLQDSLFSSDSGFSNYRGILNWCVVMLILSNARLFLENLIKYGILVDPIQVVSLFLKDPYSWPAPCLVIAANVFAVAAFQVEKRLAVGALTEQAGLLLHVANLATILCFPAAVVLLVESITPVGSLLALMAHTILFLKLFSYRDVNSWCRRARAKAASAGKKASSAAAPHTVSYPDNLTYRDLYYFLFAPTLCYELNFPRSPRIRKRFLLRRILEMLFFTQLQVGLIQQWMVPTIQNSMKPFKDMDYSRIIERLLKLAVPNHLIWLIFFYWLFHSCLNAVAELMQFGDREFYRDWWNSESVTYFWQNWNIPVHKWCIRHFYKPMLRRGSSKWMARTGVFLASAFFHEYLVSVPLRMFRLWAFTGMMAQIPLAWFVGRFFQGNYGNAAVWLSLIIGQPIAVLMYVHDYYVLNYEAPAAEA
Put plainly: In-vitro DGAT1 assay with hDGAT1 microsomes from Sf9 cells (14C oleoyl CoA, scintillation counting). The conditions noted are these: for inhibition at 1 µM: read-out: Percentage inhibition of hDGAT1. Format: biochemical. How it is done: Sf9 cells were grown in T25 flasks containing Graces's Insect media with 10% FBS with antibiotic (100 units/mL penicillin, 100 μg/mL streptomycin sulphate, 0.25 μg/mL Amptotericin B as Fungizone) grown in a 27° C. incubator.
hDGAT10RF expression clone (RZPDo839C09146 in pDEST vector) was obtained from RZPD, German Science Center for Genomes research, Germany. hDGAT1 bacmid DNA was obtained by transformation of the hDGAT1 expression clone into DH10Bac E. coli competent cells. Approximately 1 μg of hDGAT1 bacmid DNA was infected into Sf9 cells with Cellfectin (Invitrogen) reagent. Following infection, Sf9 cells were incubated at 27° C. for 30 min. Five hours after infection, the media was replaced with growth media containing antibiotics (100 units/mL penicillin, 100 μg/mL streptomycin sulphate, 0.25 μg/mL Amptotericin B as Fungizone) and incubated at 27° C. for 72 h. The supernatant containing the virus was centrifuged at 1500×g for 5 min, passed through 0.22 μm filter, and subsequently stored at 4° C. The virus was further amplified three more times by re-infection of Sf9 cells and the viral titer was determined by plaque assay.
Sf9 cells were seeded in spinner flasks on day 0 at a cell density of 1×10^6 and infected on day 1 with hDGAT1 baculovirus at a multiplicity of infection (MOI) of 5 and a cell density of 2×10^6. On day 3 (or 66-72 h), cells were harvested and centrifuged at 2500×g for 10 min. Pellet was resuspended in lysis buffer (100 mM sucrose, 50 mM KCl, 40 mM KH2PO4, 30 mM EDTA, pH 7.2) and passed through 21-gauge needle approximately 10 times. The mixture was centrifuged at 12,000 rpm in a Sigma 12158-H rotor at 4° C. for 30 min. The supernatant was subjected to centrifugation at 35,000 rpm in a Beckman Ti-45 rotor at 4° C. for 1 h. The resultant pellet containing the microsomes wasere resuspended overnight in 1 mL of lysis buffer and total protein concentration was estimated using Bradford Reagent. Microsomes were aliquoted and stored at −80° C.
Frozen aliquots of hDGAT1 containing microsomes were thawed (5-10 mg/mL total protein) on ice and diluted to a working stock of 1 mg/mL with DGAT Assay Buffer (DAB). The DGAT reaction assay was performed by following the procedure described in U.S. Pat. No. 6,607,893 with some modifications that are described below.
1 mL stock solution of DGAT1 substrate mixture contains 5.6 μL of ^14C oleoyl CoA (16.8 nCi) and […] of 1,2-dioleoyl-sn-glycerol (1228.5 μM) 1,2-dioleoyl-sn-glycerol stock (19.5 mM) was prepared by dissolving 25 mg of 1,2-dioleoyl-sn-glycerol (Sigma, US) in 2060 μL of acetone.
The assay was performed in duplicates in a reaction volume of 100 μL.
The reaction was started by the addition of 2.5 μL of 1 mg/mL of microsomes (iv) to the mixture of (i), (ii) and (iii), and incubated at 37° C. for 10 min. The reaction was stopped by the addition of 300 μL of Alkaline Ethanol Stop Solution Mix [AESSM; 12.5% of 100% non-denatured ethanol, 10% deionized water, 2.5% 1N NaOH, 75% stop solution (78.4% isopropanol, 19.6% n-heptane, 2% deionized water)] followed by addition of 600 μL of n-heptane. The mixture was vortexed and the triglycerides formed were extracted into the organic heptane phase. 250 μL of the heptane phase was added into 4 mL scintillation cocktail (66.72% toluene, 33.3% TritonX-100, 0.5% PPO, 0.02% POPOP) and counted on a liquid scintillation counter for 1 min. Data was collected and plotted as a function of concentration in nM versus percentage inhibition of hDGAT1 by the compounds of present invention.

As a reminder, the inhibition is the drop in the measured response relative to a control, in per cent. For `O=C(Nc1ccc(-c2cnc(C3CCC(C(=O)O)CC3)s2)cc1)Nc1cccc(Cl)c1` (stereo not drawn) [Example 144, 4-(5-(4-(3-(3-Chlorophenyl)ureido)phenyl)thiazol-2-yl)cyclohexane carboxylic acid], the inhibition at 1 µM is above 50%.

As to `O=C(Nc1ccc(Cl)cc1)Nc1ccc(-c2cnc(C3CCC(C(=O)O)CC3)s2)cc1` (stereo not drawn) [Example 146, 4-(5-(4-(3-(4-Chlorophenyl)ureido)phenyl)thiazol-2-yl)cyclohexane carboxylic acid], the inhibition at 1 µM is above 50%. Regarding `O=C(Nc1ccc(-c2cnc(C3CCC(C(=O)O)CC3)s2)cc1)Nc1ccc(C(F)(F)F)cc1Cl` (stereo not drawn) [Example 148, 4-(5-(4-(3-(2-Chloro-4-(trifluoromethyl)phenyl)ureido)phenyl)thiazol-2-yl)cyclohexanecarboxylic acid], the inhibition at 1 µM is above 50%.

Regarding `Cc1ccc(Cl)c(NC(=O)Nc2ccc(-c3cnc(C4CCC(C(=O)O)CC4)s3)cc2)c1` (stereo not drawn) [Example 150, 4-(5-(4-(3-(2-Chloro-5-methylphenyl)ureido)phenyl)thiazol-2-yl)cyclohexane carboxylic acid], the inhibition at 1 µM was above 50%. In the case of `O=C(Nc1ccc(-c2cnc(C3CCC(C(=O)O)CC3)s2)cc1)Nc1cccc(Cl)c1F` (stereo not drawn) [Example 152, 4-(5-(4-(3-(3-Chloro-2-fluorophenyl)ureido)phenyl)thiazol-2-yl)cyclohexane carboxylic acid], the inhibition at 1 µM is above 50%. As for `COc1ccc(NC(=O)Nc2ccc(-c3cnc(C4CCC(C(=O)O)CC4)s3)cc2)c(C)c1` (stereo not drawn) [Example 154, 4-(5-(4-(3-(4-Methoxy-2-methylphenyl)ureido)phenyl)thiazol-2-yl)cyclo hexanecarboxylic acid], the inhibition at 1 µM is above 50%.

Turning to `O=C(Nc1ccc(-c2cnc(C3CCC(C(=O)O)CC3)s2)cc1)Nc1ccc2c(c1)OCO2` (stereo not drawn) [Example 156, 4-(5-(4-(3-Benzo[d][1,3]-dioxol-5-ylureido)phenyl)thiazol-2-yl)cyclohexane carboxylic acid], the inhibition at 1 µM is above 50%.

In the case of `O=C(Nc1ccc(-c2cnc(C3CCC(C(=O)O)CC3)s2)cc1)Nc1c(Cl)cccc1C(F)(F)F` (stereo not drawn) [Example 158, 4-(5-(4-(3-(2-Chloro-6-(trifluoromethyl)phenyl)ureido)phenyl)thiazol-2-yl)cyclohexanecarboxylic acid], the inhibition at 1 µM is above 50%. Take `O=C(Nc1ccc(-c2cnc(C3CCC(C(=O)O)CC3)s2)cc1)Nc1ccc(Cl)cc1C(F)(F)F` (stereo not drawn) [Example 160, 4-(5-(4-(3-(4-Chloro-2-(trifluoromethyl)phenyl)ureido)phenyl)thiazol-2-yl)cyclohexanecarboxylic acid]: the inhibition at 1 µM is above 50%.

Turning to `Cc1cccc(Cl)c1NC(=O)Nc1ccc(-c2cnc(C3CCC(C(=O)O)CC3)s2)cc1` (stereo not drawn) [Example 162, 4-(5-(4-(3-(2-Chloro-6-methylphenyl)ureido)phenyl)thiazol-2-yl)cyclohexane carboxylic acid], the inhibition at 1 µM was above 50%. Take `Cc1ccc(Cl)cc1NC(=O)Nc1ccc(-c2cnc(C3CCC(C(=O)O)CC3)s2)cc1` (stereo not drawn) [Example 164]: for the setting “at 1 μM”, the “Percentage inhibition of hDGAT1” value was “++ (>50 % Inhibition)”. `O=C(Nc1ccc(-c2cnc(C3CCC(C(=O)O)CC3)s2)cc1)Nc1ccccc1C(F)(F)F` (stereo not drawn) [Example 166, 4-(5-(4-(3-(2-(Trifluoromethyl)phenyl)ureido)phenyl)thiazol-2-yl)cyclohexane carboxylic acid]: the inhibition at 1 µM is above 50%. Take `O=C(Nc1ccc(-c2cnc(C3CCC(C(=O)O)CC3)s2)cc1)Nc1ccccc1OC(F)(F)F` (stereo not drawn) [Example 168, 4-(5-(4-(3-(2-(Trifluoromethoxy)phenyl)ureido)phenyl)thiazol-2-yl)cyclo hexanecarboxylic acid]: the inhibition at 1 µM was above 50%. Regarding `O=C(Nc1ccc(Oc2ccccc2)cc1)Nc1ccc(-c2cnc(C3CCC(C(=O)O)CC3)s2)cc1` (stereo not drawn) [Example 170, 4-(5-(4-(3-(4-Phenoxyphenyl)ureido)phenyl)thiazol-2-yl)cyclohexane carboxylic acid], the inhibition at 1 µM was above 50%. The same measure, in the same setting: the figure for `O=C(Nc1ccc(-c2cnc(C3CCC(C(=O)O)CC3)s2)cc1)Nc1ccc(Cl)cc1F` (stereo not drawn) [Example 172, 4-(5-(4-(3-(4-Chloro-2-fluorophenyl)ureido)phenyl)thiazol-2-yl)cyclohexane carboxylic acid] is above 50%. Consider `Cc1ccc(F)c(NC(=O)Nc2ccc(-c3cnc(C4CCC(C(=O)O)CC4)s3)cc2)c1` (stereo not drawn) [Example 174, 4-(5-(4-(3-(2-Fluoro-5-methylphenyl)ureido)phenyl)thiazol-2-yl)cyclohexane carboxylic acid], for which the inhibition at 1 µM was above 50%. Turning to `O=C(Nc1ccc(-c2cnc(C3CCC(C(=O)O)CC3)s2)cc1)Nc1c(F)cccc1C(F)(F)F` (stereo not drawn) [Example 176, 4-(5-(4-(3-(2-Fluoro-6-(trifluoromethyl)phenyl)ureido)phenyl)thiazol-2-yl)cyclohexanecarboxylic acid], the inhibition at 1 µM lay within 20 to 50%.

On to `O=C(Nc1ccc(-c2cnc(C3CCC(C(=O)O)CC3)s2)cc1)Nc1cccc(F)c1` (stereo not drawn) [Example 178, 4-(5-(4-(3-(3-Fluorophenyl)ureido)phenyl)thiazol-2-yl)cyclohexanecarboxylic acid], for which the inhibition at 1 µM is above 50%. The same measure, in the same setting: the figure for `O=C(Nc1ccc(-c2cnc(C3CCC(C(=O)O)CC3)s2)cc1)Nc1ccc(F)c(F)c1` (stereo not drawn) [Example 180, 4-(5-(4-(3-(3,4-Difluorophenyl)ureido)phenyl)thiazol-2-yl)cyclohexane carboxylic acid] is above 50%; for `O=C(Nc1ccc(-c2cnc(C3CCC(C(=O)O)CC3)s2)cc1)Nc1cc(F)cc(F)c1` (stereo not drawn) [Example 182, 4-(5-(4-(3-(3,5-Difluorophenyl)ureido)phenyl)thiazol-2-yl)cyclohexane carboxylic acid] it is above 50%. Regarding `O=C(Nc1ccc(-c2cnc(C3CCC(C(=O)O)CC3)s2)cc1)Nc1c(F)cccc1F` (stereo not drawn) [Example 184, 4-(5-(4-(3-(2,6-Difluorophenyl)ureido)phenyl)thiazol-2-yl)cyclohexane carboxylic acid], the inhibition at 1 µM is above 50%. In the case of `O=C(Nc1ccc(-c2cnc(C3CCC(C(=O)O)CC3)s2)cc1)Nc1ccc(F)c(F)c1F` (stereo not drawn) [Example 186, 4-(5-(4-(3-(2,3,4-Trifluorophenyl)ureido)phenyl)thiazol-2-yl)cyclohexane carboxylic acid], the inhibition at 1 µM is above 50%. Turning to `O=C(Nc1ccc(-c2cnc(C3CCC(C(=O)O)CC3)s2)cc1)Nc1ccccc1Cl` (stereo not drawn) [Example 188, 4-(5-(4-(3-(2-Chlorophenyl)ureido)phenyl)thiazol-2-yl)cyclohexane carboxylic acid], the inhibition at 1 µM is above 50%.

For the molecule `O=C(Nc1ccc(-c2cnc(C3CCC(C(=O)O)CC3)s2)cc1)Nc1ccc(Cl)cc1Oc1ccccc1` (stereo not drawn) [Example 190, 4-(5-(4-(3-(4-Chloro-2-phenoxyphenyl)ureido)phenyl)thiazol-2-yl)cyclohexane carboxylic acid], the inhibition at 1 µM was above 50%.
